Measured values: patent US20230067676A1, “CO-CRYSTALS AND SALTS OF 8-CHLORO-N-(4-(TRIFLUOROMETHOXY)PHENYL)QUINOLIN-2-AMINE” (ABIVAX, priority 2020, published 2023)
Values after ≈ are worked out from the molar mass of the structure shown. Like-named read-outs stand apart in the source and are kept apart here.

Experiments:
physchem = conditions: thermodynamic from solid
[1] = Two-steps Dissolution/Precipitation in vitro Human Fasted model (gastric then intestinal compartment); assay type: physicochemical; conditions: for Crystalline phase conversion as detected by XRPD: solid residues collected in the fasted Dissolution/Precipitation test
Method: Samples were analysed by HPLC-UV according to the following method: • Instrument: Agilent 1200 and 1100 with PDA detector • Column: Waters XTerra MS C18 3.5 μm 4.6×50 mm • Flow rate: 1.5 ml/min • UV detection: 220 nm, 270 nm, 290 nm • Column temperature: 40° C. • Injection volume: 1 μl • Mobile phase: gradient with solutions A and B prepared according to the following: • Eluent A: Ultrapurified water adjusted to pH2 with orthophosphoric acid 85% • Eluent B: Acetonitrile
The ABX464 crystalline Form I, and anhydrous ABX464 hemi-Napadisylate salt have been evaluated in the Two-steps Dissolution/Precipitation in vitro Human model.
The model consists in the following steps: • Dispensing selected material in Fasted simulated gastric medium containing 1% w PVPVA (inhibitor of precipitation) and then after 30 min, • Diluting obtained suspension by simulated Fasted intestinal medium.
Using this model, the dissolution of selected materials (ABX464 crystalline Form I, or anhydrous BX464 hemi-Napadisylate salt) in gastric medium and the risk of precipitation of the API (Active Pharmaceutical Ingredient) in intestinal compartment is evaluated.
The crystalline nature of solid residues collected by end of each steps (Gastric and Intestinal) have been determined by XRPD after centrifugation (15 min at 18000 rpm).
Protocol for Dissolution/Precipitation Model in Human Fasted Conditions • In 6 different vials, 4.0 mg equivalent ABX464 of selected material are weighed • Solubility measurement in the gastric compartment (also named G) after 15 min (G15 min) and after 30 min (G30 min) which comprises the following steps: • Adding 1 mL of FaSSGF pH 1.2 medium containing 1% w PVPVA (ABX464 target concentration=4 mg/ml) on the 6 vials, • Mixing with a vortex at 37° C. • At times 15 min and 30 min, considering one vial (vials labelled G15 min and G30 min respectively) and for each vials • noting the aspect of suspension, • centrifuging 5 min at 18000 rpm and filtering on a 0.45 μm filter (filter Millex LCR Ref. SLCR0,13NK). • Measuring the pH of supernatant, • Dosing ABX464 soluble fraction by HPLC, • Recording XPRD pattern on the final time point sample. • Solubility measurement in the intestinal compartment (also named I) after 15 min (vial I 15 min), 30 min (vial I 30 min), 60 min (vial I 60 min) and 120 min (vial I 120 min) which comprises the following steps: • Adding 1 mL of FaSSIF ×2 pH 6.5 medium/sodium bicarbonate 90/10) on the 4 remaining vials (ABX464 target concentration=2 mg/ml) • Mixing with a Vortex at 37° C. • At times 15 min, 30 min, 60 min and 120 min, considering one vial (vials labelled I 15 min, I 30 min, I 60 min and I 120 min respectively) and for each vials • noting the aspect of suspension • Centrifuging 5 min at 18000 rpm and filtering on a 0.45 μm filter (filter Millex LCR Ref. SLCR0,13NK). • Measuring the pH of supernatant • Dosing ABX464 soluble fraction by HPLC • Recording XPRD pattern on the final time point sample.
Composition and preparation of biorelevant media in Fasted conditions (see tables 11 and 12): • Fasted Gastric medium=FaSSGF pH=1.2/1% PVPVA w/v
• Fasted Intestinal medium (FaSSIF X2 pH=6.5/Sodium Bicarbonate at 80 g/l 90/10 v/v) Composition/Preparation of FaSSIF ×2 (medium concentrated 2 times to take into account the dilution in the Fasted model):
The FaSSIF X2/Sodium Bicarbonate 80 g/l (90/10; v/v) mixture was prepared to keep pH equal to 6.5 in the intestinal compartment after dilution.

[2] = Kinetic solubility in two aqueous media (FaSSIF pH 6.5 + 1% PVPVA; FeSSIF pH 5.0 + 1% PVPVA); conditions: for Solubility compared to the ABX464 crystalline Form I: FaSSIF and FeSSIF media (+ 1% PVPVA), at each time; for Kinetic solubility: room temperature, 2 mg/ml equivalent ABX464 target
[3] = FaSSIF pH 6.5 + 1% PVPVA, pH 6.5, aqueous with cosolvent or surfactant or cyclodextrin
[4] = FeSSIF + 1% PVPVA, pH 5, aqueous with cosolvent or surfactant or cyclodextrin
[5] = FeSSIF pH 5 + 1% PVPVA, pH 5, aqueous with cosolvent or surfactant or cyclodextrin

FC(F)(F)Oc1ccc(Nc2ccc3cccc(Cl)c3n2)cc1 [ABX464 crystalline Form I, 8-chloro-N-(4-(trifluoromethoxy)phenyl)quinolin-2-amine]
solubility kinetic at 5 min (physchem; [3]): 6 µg/mL
solubility kinetic at 30 min (physchem; [3]): 22 µg/mL
solubility kinetic at 2 h (physchem; [3]): 47 µg/mL
solubility kinetic at 4 h (physchem; [3]): 62 µg/mL
solubility kinetic at 24 h (physchem; [3]): 72 µg/mL
solubility at 2 h (physchem; [4]): ~300 µg/mL
solubility at 24 h (physchem; [4]): ~420 µg/mL
solubility kinetic at 5 min (physchem; [5]): 54 µg/mL
solubility kinetic at 30 min (physchem; [5]): 153 µg/mL
solubility kinetic at 2 h (physchem; [5]): 297 µg/mL
solubility kinetic at 4 h (physchem; [5]): 358 µg/mL
solubility kinetic at 24 h (physchem; [5]): 419 µg/mL
solubility at 15 min ([1]; 37 °C, pH 1.2, fassgf or other biorelevant, thermodynamic from solid, gastric compartment, vial G 15 min, FaSSGF pH 1.2 + 1% PVPVA, 37° C., target about 4 mg/ml, read-out: Soluble fraction): 60 µg/mL
solubility at 30 min ([1]; 37 °C, pH 1.2, fassgf or other biorelevant, thermodynamic from solid, gastric compartment, vial G 30 min, FaSSGF pH 1.2 + 1% PVPVA, 37° C., target about 4 mg/ml, read-out: Soluble fraction): 70 µg/mL
solubility ([1]; 37 °C, pH 6.5, fassif, thermodynamic from solid, intestinal compartment at pH 6.5 of the fasted human in vitro model, read-out: Solubility (ABX464 soluble fraction) in the intestinal compartment): ~80 µg/mL (≈ 236 µM)
solubility at 15 min ([1]; 37 °C, pH 6.5, fassif, thermodynamic from solid, intestinal compartment, vial I 15 min (45 min total), FaSSIF x2 pH 6.5/sodium bicarbonate 90/10 added, 37° C., target about 2 mg/ml, read-out: Soluble fraction): 60 µg/mL (≈ 177 µM)
solubility at 30 min ([1]; 37 °C, pH 6.5, fassif, thermodynamic from solid, intestinal compartment, vial I 30 min (60 min total), FaSSIF x2 pH 6.5/sodium bicarbonate 90/10 added, 37° C., target about 2 mg/ml, read-out: Soluble fraction): 70 µg/mL (≈ 207 µM)
solubility at 60 min ([1]; 37 °C, pH 6.5, fassif, thermodynamic from solid, intestinal compartment, vial I 60 min (90 min total), FaSSIF x2 pH 6.5/sodium bicarbonate 90/10 added, 37° C., target about 2 mg/ml, read-out: Soluble fraction): 70 µg/mL (≈ 207 µM)
solubility at 120 min ([1]; 37 °C, pH 6.5, fassif, thermodynamic from solid, intestinal compartment, vial I 120 min (150 min total), FaSSIF x2 pH 6.5/sodium bicarbonate 90/10 added, 37° C., target about 2 mg/ml, read-out: Soluble fraction): 80 µg/mL (≈ 236 µM)
Crystalline phase conversion as detected by XRPD ([1]; intestinal compartment): no crystalline phase conversion

FC(F)(F)Oc1ccc(Nc2ccc3cccc(Cl)c3n2)cc1.FC(F)(F)Oc1ccc(Nc2ccc3cccc(Cl)c3n2)cc1.O=S(=O)(O)c1cccc2c(S(=O)(=O)O)cccc12 [anhydrous ABX464 hemi-Napadisylate salt]
Solubility compared to the ABX464 crystalline Form I [2]: higher solubility
Solubility compared to the ABX464 crystalline Form I ([2]; listed as ABX464 hemi-Napadisylate salt): significant higher solubility
Kinetic solubility ([2]; FassiF pH 6.5 + 1% PVPVA, sampling time 5 min): 70 µg/mL
Kinetic solubility ([2]; FassiF pH 6.5 + 1% PVPVA, sampling time 30 min): 116 µg/mL
Kinetic solubility ([2]; FassiF pH 6.5 + 1% PVPVA, sampling time 2 h): 149 µg/mL
Kinetic solubility ([2]; FassiF pH 6.5 + 1% PVPVA, sampling time 4 h): 206 µg/mL
Kinetic solubility ([2]; FassiF pH 6.5 + 1% PVPVA, sampling time 24 h): 432 µg/mL
Solubility, plateau ([2]; FeSSIF + 1% PVPVA medium, at 2 h): ~1050 µg/mL
solubility ([2]; FeSSIF + 1% PVPVA medium, at 24 h): ~1520 µg/mL
Kinetic solubility ([2]; FessiF pH 5 + 1% PVPVA, sampling time 5 min): 396 µg/mL
Kinetic solubility ([2]; FessiF pH 5 + 1% PVPVA, sampling time 30 min): 782 µg/mL
Kinetic solubility ([2]; FessiF pH 5 + 1% PVPVA, sampling time 2 h): 1053 µg/mL
Kinetic solubility ([2]; FessiF pH 5 + 1% PVPVA, sampling time 4 h): 1055 µg/mL
Kinetic solubility ([2]; FessiF pH 5 + 1% PVPVA, sampling time 24 h): 1517 µg/mL
Soluble fraction ([1]; gastric compartment, vial G 15 min, FaSSGF pH 1.2 + 1% PVPVA, 37° C., target about 4 mg/ml): 0.05 mg/mL
Soluble fraction ([1]; gastric compartment, vial G 30 min, FaSSGF pH 1.2 + 1% PVPVA, 37° C., target about 4 mg/ml): 0.06 mg/mL
Solubility (ABX464 soluble fraction) in the intestinal compartment ([1]; intestinal compartment at pH 6.5 of the fasted human in vitro model): ~430 µg/mL
Soluble fraction ([1]; intestinal compartment, vial I 15 min (45 min total), FaSSIF x2 pH 6.5/sodium bicarbonate 90/10 added, 37° C., target about 2 mg/ml): 0.17 mg/mL
Soluble fraction ([1]; intestinal compartment, vial I 30 min (60 min total), FaSSIF x2 pH 6.5/sodium bicarbonate 90/10 added, 37° C., target about 2 mg/ml): 0.23 mg/mL
Soluble fraction ([1]; intestinal compartment, vial I 60 min (90 min total), FaSSIF x2 pH 6.5/sodium bicarbonate 90/10 added, 37° C., target about 2 mg/ml): 0.32 mg/mL
Soluble fraction ([1]; intestinal compartment, vial I 120 min (150 min total), FaSSIF x2 pH 6.5/sodium bicarbonate 90/10 added, 37° C., target about 2 mg/ml): 0.43 mg/mL
Crystalline phase conversion as detected by XRPD ([1]; intestinal compartment): no crystalline phase conversion
